Assays:
[1] = biological target: T1, full-length recombinant rat vitamin D receptor (Rattus norvegicus, UniProt P13053); experiment: Vitamin D receptor binding, competition with [3H]-1,25-(OH)2-D3; conditions: compared with 1,25(OH)2D3; FIG. 1
T1 construct: Full-length recombinant rat receptor was expressed in E. coli BL21(DE3) Codon Plus RIL cells; histidine tag (C); made in house; host or cells: E. coli BL21(DE3) Codon Plus RIL
T1 sequence (P13053 1-423): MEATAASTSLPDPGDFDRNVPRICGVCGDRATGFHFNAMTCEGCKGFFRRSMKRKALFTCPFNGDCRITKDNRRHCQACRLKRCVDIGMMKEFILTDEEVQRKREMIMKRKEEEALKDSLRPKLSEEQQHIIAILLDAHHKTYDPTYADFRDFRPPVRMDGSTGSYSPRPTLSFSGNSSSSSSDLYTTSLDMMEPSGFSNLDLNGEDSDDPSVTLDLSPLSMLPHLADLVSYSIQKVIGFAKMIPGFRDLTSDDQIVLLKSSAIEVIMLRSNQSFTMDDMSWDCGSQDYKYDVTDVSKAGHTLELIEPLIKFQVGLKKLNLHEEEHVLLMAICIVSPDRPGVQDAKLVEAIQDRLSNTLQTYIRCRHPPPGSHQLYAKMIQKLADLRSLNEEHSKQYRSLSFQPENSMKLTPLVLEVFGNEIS
Protocol: Full-length recombinant rat receptor was expressed in E. coli BL21(DE3) Codon Plus RIL cells and purified to homogeneity using two different column chromatography systems. The first system was a nickel affinity resin that utilizes the C-terminal histidine tag on this protein. The protein that was eluted from this resin was further purified using ion exchange chromatography (S-Sepharose Fast Flow). Aliquots of the purified protein were quick frozen in liquid nitrogen and stored at −80° C. until use. For use in binding assays, the protein was diluted in TEDK50 (50 mM Tris, 1.5 mM EDTA, pH 7.4, 5 mM DTT, 150 mM KCl) with 0.1% Chaps detergent. The receptor protein and ligand concentration was optimized such that no more than 20% of the added radiolabeled ligand was bound to the receptor.
Unlabeled ligands were dissolved in ethanol and the concentrations determined using UV spectrophotometry (1,25(OH)2D3: molar extinction coefficient=18,200 and λmax=265 nm; Analogs: molar extinction coefficient=42,000 and λmax=252 nm). Radiolabeled ligand (^3H-1,25(OH)2D3, ˜159 Ci/mmole) was added in ethanol at a final concentration of 1 nM.
Radiolabeled and unlabeled ligands were added to 100 mcl of the diluted protein at a final ethanol concentration of ≦10%, mixed and incubated overnight on ice to reach binding equilibrium. […] Total binding was determined from the tubes containing only radiolabeled ligand.

HL-60 cells = experiment: HL-60 differentiation (nitro blue tetrazolium reduction); type: cell-based, human; conditions: compared with 1,25-(OH)2D3; FIG. 2
Protocol: The study drugs were dissolved in ethanol and the concentrations determined using UV spectrophotometry. Serial dilutions were prepared so that a range of drug concentrations could be tested without changing the final concentration of ethanol (≦0.2%) present in the cell cultures.
Human promyelocytic leukemia (HL60) cells were grown in RPMI-1640 medium containing 10% fetal bovine serum. The cells were incubated at 37° C. in the presence of 5% CO2.
HL60 cells were plated at 1.2×10^5 cells/ml. Eighteen hours after plating, cells in duplicate were treated with drug. Four days later, the cells were harvested and a nitro blue tetrazolium reduction assay was performed (Collins et al., 1979; J. Exp. Med. 149:969-974). The percentage of differentiated cells was determined by counting a total of 200 cells and recording the number that contained intracellular black-blue formazan deposits. Verification of differentiation to monocytic cells was determined by measuring phagocytic activity (data not shown).

[2] = test system: 24-hydroxylase (24Ohase) gene promoter; experiment: In vitro transcription assay (24-hydroxylase promoter luciferase reporter in ROS 17/2.8 cells); type: cell-based; conditions: compared with 1,25-(OH)2D3; FIG. 3
Protocol: Transcription activity was measured in ROS 17/2.8 (bone) cells that were stably transfected with a 24-hydroxylase (24Ohase) gene promoter upstream of a luciferase reporter gene (Arbour et al., 1998). Cells were given a range of doses. Sixteen hours after dosing the cells were harvested and luciferase activities were measured using a luminometer. RLU=relative luciferase units.

[3] = Bone calcium mobilization (serum calcium on low calcium diet); type: in vivo, rat; conditions: rats, ip, even at 2340 pmol/day; FIG. 4
Protocol: (§1) Male, weanling Sprague-Dawley rats were placed on Diet 11 (0.47% Ca) diet +AEK for one week followed by Diet 11 (0.02% Ca) +AEK for 3 weeks. The rats were then switched to a diet containing 0.47% Ca for one week followed by two weeks on a diet containing 0.02% Ca. Dose administration began during the last week on 0.02% calcium diet. Four consecutive ip doses were given approximately 24 hours apart. Twenty-four hours after the last dose, blood was collected from the severed neck and the concentration of serum calcium determined as a measure of bone calcium mobilization. The first 10 cm of the intestine was also collected for intestinal calcium transport analysis using the everted gut sac method.

[4] = Intestinal calcium transport (everted gut sac method); type: in vivo, rat; conditions: rats, ip; FIG. 5
Protocol: as §1

[5] = test system: parathyroid hormone (PTH); experiment: PTH suppression in adult rats; type: in vivo, rat; conditions: ip, 7 consecutive days
Protocol: (§2) Adult, female Sprague-Dawley rats were obtained from Harlan (Madison, Wis.).
(§3) Upon receipt, the animals were identified by individual tail marks. Animals were housed in suspended, stainless steel, wire-bottom cages. Each cage contained one animal. The animal rooms were maintained at a temperature of 68 to 72° F. and a relative humidity of 25 to 75%. The holding rooms were set to provide 12 hours of light per day. Water and a purified rodent diet (Suda et al., Purified Rodent Diet-Diet 11) containing […] 0.3% phosphorus and fat soluble vitamins A, D, E and K were provided ad libitum.
(§4) Animals were randomly assigned to treatment groups (5 animals/group). All doses were administered intraperitoneally in 100 microliters of propylene glycol. Four to seven consecutive doses were given approximately 24 hours apart. Dosing was initiated after the animals had been allowed to acclimate for at least one week.
Both control and test articles were administered by intraperitoneal injection in 100 microliters for 4-7 consecutive days spaced approximately 24 hours apart. 1,25(OH)2D3 was given for 4 consecutive days, whereas, the test drugs were given for 7 consecutive days.
Twenty-four hours after the final dose, blood was collected from the tail artery and the concentration of bioactive serum PTH was measured using the rat BioActive Intact PTH ELISA Kit from Immutopics, Inc. (San Clemente, Calif.).

[6] = Hypercalcemia: serum calcium in adult rats; type: in vivo, rat; conditions: ip, 7 consecutive days
Protocol: as §2, §3, §4
Both control and test articles were administered by intraperitoneal injection in 100 microliters for 4-7 consecutive days spaced approximately 24 hours apart. […]
Twenty-four hours after the final dose, approximately 1 ml of blood was collected from the tail artery of each experimental animal. […] The level of calcium was determined by diluting the serum into 0.1% lanthum chloride and measuring the absorbance on an atomic absorption spectrophotometer (Perkin Elmer Model 3110, Shelton, Conn.).

C=C1[C@H](O)CC(=C/C=C2\CCC[C@]3(C)C([C@@H](C)CCC)CC[C@@H]23)C[C@H]1O (stereo in doubt) [2-Methylene-19-nor-(20S)-1α-hydroxy-trishomopregnacalciferol]
binding to the vitamin D receptor relative to the native hormone [1]: almost equal to the native hormone | activity in inducing differentiation of HL-60 cells (HL-60 cells): equal in activity to 1,25-(OH)2D3 | transcription activity [2]: within one order of magnitude of the activity of 1,25-(OH)2D3 | bone calcium mobilizing activity [3]: little bone calcium mobilizing activity | intestinal calcium transport [4]: retain some ability to elevate intestinal calcium transport | suppression of parathyroid hormone [5]: remarkably effective in suppressing parathyroid hormone | serum calcium concentrations [6]: not raising serum calcium concentrations

From patent US20060135798A1, “2-Methylene-19-nor-(20S)-1alpha-hydroxy-trishomopregnacalciferol” (Wisconsin Alumni Research Foundation, priority 2004, published 2006)
